The text below walks through data of patent publication US10150729B2, “Tranilast compositions and cocrystals” (NUFORMIX LIMITED, priority 2012, dated 2018).

Read-outs that look alike come from different tables or passages of the source.

The nature of series [1]: Physical stability study of the cocrystal under accelerated conditions (40° C./75% RH), examined by XRPD. It is filed as physicochemical. As for the experimental part:
X-Ray Powder Diffraction patterns at the required time points were collected on a PANalytical diffractometer using Cu Kα radiation (45 kV, 40 mA), θ-θ goniometer, focusing mirror, divergence slit (½″), soller slits at both incident and divergent beam (4 mm) and a PIXcel detector. The software used for data collection was X'Pert Data Collector, version 2.2f and the data was presented using X'Pert Data Viewer, version 1.2d. Instrument verification was performed using a silicon and benzoic acid standard, performed with the same batch program as listed below for sample analysis. Samples were run under ambient conditions and were analysed by transmission foil XRPD, using the powder as received. Approximately 2-5 mg of the sample was mounted on a 96 position sample plate supported on a polyimide (Kapton, 12.7 μm thickness) film. Plate height (Z) was set to 9 mm. Data was collected in the range 3-40° 2θ with a continuous scan (speed of 0.2° 2θ/s).
A stability study was carried out to examine the physical stability of the 1:1 tranilast nicotinamide cocrystal with respect to dissociation into its starting components over time under accelerated conditions. Approximately 1-2 mg of the 1:1 tranilast nicotinamide cocrystal was placed in seven clear glass vials. The glass vials were loosely sealed with plastic screw caps so as to provide a barrier to solid transfer but to still allow moisture equilibration with the outer environment. The vial head space above the sample was estimated to be >95% of the total vial volume. All seven samples were then placed on a tray and stored within a stability cabinet set at 40° C./75% RH. At every time point examined the XRPD pattern obtained was characteristic of the 1:1 tranilast nicotinamide cocrystal with no evidence of either of the starting materials, or any new peaks to indicate conversion to a different crystalline form. FIG. 7 illustrates the XRPD patterns obtained at the time points 0, three months and six months. FIG. 7 is an overlay of the XRPD patterns of the 1:1 tranilast nicotinamide cocrystal at those time points during a 6 month accelerated stability study at 40° C./75% RH.

Series [2] can be described thus: Dissolution study in purified water containing 2% SDS. The format is physicochemical. As for the experimental part:
For poorly soluble drugs, such as tranilast, the rate of dissolution of the drug form used can have an impact on the overall absorption and thus bioavailability of the drug, especially for example, in the case of oral solid dosage or inhalation delivery methods. […] The dissolution experiment was carried out for tranilast and each of the cocrystal forms at a concentration equivalent to 0.4 mg tranilast/ml in purified water containing 2% SDS. This study compared the dissolution rates of the cocrystals versus pure crystalline tranilast, because of the extremely low solubility of crystalline tranilast in aqueous media, the surfactant sodium dodecyl sulfate (SDS) was added to the dissolution media to allow easier analytical detection. Samples were collected and analysed at 1, 5, 10 and 30 minute time points. The samples were analysed by HPLC using the method described in Table 10. FIG. 32 illustrates the dissolution profiles from a single dataset for each of the tranilast cocrystals alongside crystalline tranilast over the 30 minute time period in the aqueous 2% SDS solution. The dissolution data is corrected within error limits of the analytical method described (estimated at ±10%). […] Most of the cocrystals reach almost their maximum dissolution within the first minute.

Series [3] can be described thus: Solution photostability study (UV irradiation, HPLC). To be noted: dissolved in DMSO/MeOH/water; UV light; 24 hrs.
Procedure: (§1) This study explored the photostability of the 1:1 tranilast nicotinamide cocrystal, the 1:1 tranilast saccharin cocrystal, the 1:1 tranilast gentisic acid cocrystal, the 1:1 salicylic acid cocrystal, the 1:1 tranilast urea cocrystal, the 1:1 tranilast 4-aminobenzoic acid cocrystal and the 1:1 tranilast 2,4-dihydroxybenzoic acid cocrystal once dissolved in solution and to compare these with the solution photostability of pure tranilast. A 1 mg sample of crystalline tranilast and the seven cocrystal forms were each weighed into a clear glass vial. Each sample was dissolved in a mixture of DMSO (200 μl), MeOH (600 μl) and water (600 μl). The vials were placed into a Vindon Scientific Photostability cabinet and irradiated with UV light (average Klux=18.2 (18.2 Lux/hour), average UV values=2.55 watts/minute, temperature=31.0-32.0° C.). The percentage of tranilast remaining in each sample, that had not undergone degradation into the cis-isomer, dimer or any other degradation product, was determined after 24 hours using HPLC.
The nature of series [4]: Solid-state photostability study (UV irradiation, HPLC). As to conditions: UV light; for photostability in the solid-state: compared to pure crystalline tranilast.
Procedure: A study was, therefore, carried out to determine the solid-state photostability of the 1:1 tranilast nicotinamide cocrystal, the 1:1 tranilast saccharin cocrystal, the 1:1 tranilast gentisic acid cocrystal, the 1:1 salicylic acid cocrystal, the 1:1 tranilast urea cocrystal, the 1:1 tranilast 4-aminobenzoic acid cocrystal and the 1:1 tranilast 2,4-dihydroxybenzoic acid cocrystal and to compare this with the solid state photostability of pure crystalline tranilast. A 1-2 mg sample of crystalline tranilast and the seven cocrystal forms were each weighed and spread over the bottom surface of a clear glass vial. The vials were placed into a Vindon Scientific Photostability cabinet and irradiated with UV light (average Klux=18.2 (18.2 Lux/hour), average UV values=2.55 watts/minute, temperature=31.0-32.0° C.). The percentage of tranilast remaining in each sample, that had not undergone degradation into the cis-isomer, dimer or any other degradation product, was determined at 3, 24 and 48 hours using HPLC.
The conditions of series [5]: buffer, 24 h.
Procedure: as §1

With `COc1ccc(/C=C/C(=O)Nc2ccccc2C(=O)O)cc1OC.NC(=O)c1cccnc1` [1:1 Tranilast Nicotinamide Cocrystal], the “XRPD Characterization” value in series [1] (1 month), in series [1] (1 week), in series [1] (2 months), in series [1] (2 week), in series [1] (3 months) and in series [1] (3 week) was “cocrystal” each time. In addition, the “XRPD Characterization” value in series [1] (6 months) and in series [1] (time point 0) was “cocrystal” throughout. Further, the “physical stability with respect to dissociation or conversion to another crystalline form” value in series [1] (six month period) is “stable”. In addition, the dissolution reached entry in series [2] (within 1 minute) is on record as “almost complete dissolution”. Moreover, the “percentage of tranilast remaining” value came to 80.2% in series [3], 99.3% in series [4] (3 hrs), 99.9% in series [4] (24 hrs) and 99.9% in series [4] (48 hrs). Further, the “photostability in the solid-state” value in series [4] is “comparable photostability”.
As for `COc1ccc(/C=C/C(=O)Nc2ccccc2C(=O)O)cc1OC.NC(N)=O` [1:1 Tranilast Urea Cocrystal], the “percentage of tranilast remaining” value amounted to 76.4% in series [3], 99.8% in series [4] (3 hrs), 99.6% in series [4] (24 hrs) and 99.9% in series [4] (48 hrs). In series [4], the “photostability in the solid-state” value is “comparable photostability”.
Consider `COc1ccc(/C=C/C(=O)Nc2ccccc2C(=O)O)cc1OC.O=C1NS(=O)(=O)c2ccccc21` [1:1 Tranilast Saccharin Cocrystal], for which the “percentage of tranilast remaining” value was 71.0% in series [3], 99.8% in series [4] (3 hrs), 99.6% in series [4] (24 hrs) and 99.1% in series [4] (48 hrs). In addition, in series [4], the “photostability in the solid-state” value is “comparable photostability”.
For `COc1ccc(/C=C/C(=O)Nc2ccccc2C(=O)O)cc1OC` [Crystalline Tranilast, 2-[[3-(3,4-dimethoxyphenyl)-1-oxo-2-propenyl]amino] benzoic acid, reference compound], the dissolved result in series [2] (after 1 minute, 0.4 mg tranilast/ml) is reported as “about 5%”. In addition, the “percentage of tranilast remaining” value turned out to be 66.2% in series [3], 98.9% in series [4] (3 hrs), 99.8% in series [4] (24 hrs) and 99.7% in series [4] (48 hrs).
For `COc1ccc(/C=C/C(=O)Nc2ccccc2C(=O)O)cc1OC.O=C(O)c1ccccc1O` [1:1 Tranilast Salicyclic Acid Cocrystal], the “percentage of tranilast remaining” value in series [3] is recorded as 77.5%; in series [4] (3 hrs) it was 99.8%; in series [4] (24 hrs) it was 99.6%; in series [4] (48 hrs), 98.7%. In addition, the “photostability in the solid-state” value in series [4] was “comparable photostability”.
As to `COc1ccc(/C=C/C(=O)Nc2ccccc2C(=O)O)cc1OC.O=C(O)c1cc(O)ccc1O` [1:1 Tranilast Gentisic Acid Cocrystal], the “percentage of tranilast remaining” value (3 h) amounted to 99.6%, the “percentage of tranilast remaining” value (24 h) is listed as 99.8%, the “percentage of tranilast remaining” value (48 h) came out at 99.9% and the “percentage of tranilast remaining” value in series [5] turned out to be 76.3%.
As to `COc1ccc(/C=C/C(=O)Nc2ccccc2C(=O)O)cc1OC.Nc1ccc(C(=O)O)cc1`, the “percentage of tranilast remaining” value is 76.2% in series [3], 99.8% in series [4] (3 hrs), 98.2% in series [4] (24 hrs) and 99.7% in series [4] (48 hrs). Moreover, the “photostability in the solid-state” value in series [4] was “comparable photostability”.
